Consider nine molecules from publication PMC10021052, “Novel multivalent S100A8 inhibitory peptides attenuate tumor progression and metastasis by inhibiting the TLR4-dependent pathway” (Cancer Gene Therapy, 2023).

“Also recorded” adds a separate entry of the source.

The target in one test is T1, TLR4/MD-2 complex (Homo sapiens, UniProt O00206+Q9Y6Y9).
T1 construct: TLR4/MD-2 recombinant protein (2 µg/ml) was added to each well
The test can be described thus: Divalent peptide library screening and ILVIK derivatives, binding to TLR4/MD-2 (ELISA). The note with it: ELISA-based, Fig. 7A, D. As for the experimental part:
Spot synthesis of divalent peptides on a cellulose membrane was performed using a ResPep SL SPOT synthesizer (INTAVIS Bioanalytical Instruments AG, Koeln, Germany) as described previously. Briefly, Fmoc-β-Ala-OH (Watanabe Chemical Industries, Hiroshima, Japan) was used in the first cycle, followed by amino hexanoic acid as a spacer. Fmoc-Lys(Fmoc)-OH (Watanabe Chemical Industries) was used for the next cycle to form two branches in the peptide chain for the subsequent synthesis of the various motifs. The synthesis of each peptide was confirmed by staining the membrane using bromophenol blue (1% in N, N′-dimethylformamide), which reacts with free amino residues. Free amino residues are produced only after the completion of all reactions and before deprotection of the side chain residues. […]
S100A8 recombinant protein was purified as previously described. […] Absorbance OD450/OD650 was measured using a microplate reader (Thermo Fisher Scientific). […] The amount of interleukin-8 (IL-8) or VEGF in the supernatants were analyzed by ELISA kits (R&D Systems, Mineapolis, MN) according to the manufacturer’s instructions.
Fig. 7 Isolation of multivalent S100A8 inhibitory peptides using divalent peptide libraries based on the sequences of peptide3A5. […] The binding affinities to TLR4/MD-2 complex were determined using an ELISA-based assay. […]

The subject of another test is S100A8-TLR4/MD-2 complex. The test can be described thus: Competitive inhibition of S100A8-TLR4/MD-2 binding (ELISA, S100A8 immobilized; also immunoprecipitation). Also on record: species or system human. Conditions: for competitive inhibition, potency compared with parent: ELISA, peptide3A5 vs peptide #3 (Fig. 3B), divalent vs monomer (Fig. 4A); for competitive inhibitory activity against TLR4/MD-2, peptide3A5-derived peptides: competitive inhibitory assay, Fig. 7B, E, *P < 0.05 vs TLR4/MD-2/S100A8. The protocol: (§1) S100A8 recombinant protein was purified as previously described. These proteins were immobilized on Maxisorp plates (Thermo Fisher Scientific, Waltham, MA, USA), followed by blocking with protein-free blocking buffer (Thermo Fisher Scientific). TLR4/MD-2 recombinant proteins with various concentrations of candidate peptides were then added to the indicated S100A8-immobilized ELISA plates for 2 h. The plates were washed, incubated with anti-TLR4 antibody, and HRP-conjugated secondary antibody, followed by the addition of substrate. The reaction was stopped by addition a 2N H2SO4 solution. Absorbance OD450/OD650 was measured using a microplate reader (Thermo Fisher Scientific). Maxisorp plates were also used for peptide coating. After blocking with protein-free blocking buffer, the coated plates were washed, and TLR4/MD-2 recombinant protein (2 µg/ml) was added to each well. The plates were incubated with a TLR4 antibody followed by horseradish peroxidase (HRP)-labeled anti-rabbit IgG. For detection of IL8 and VEGF in culture supernatants, SW480 cells were pretreated with the indicated peptides, and followed by stimulation with S100A8 for 24 h. The amount of interleukin-8 (IL-8) or VEGF in the supernatants were analyzed by ELISA kits (R&D Systems, Mineapolis, MN) according to the manufacturer’s instructions.
(§2) Fig. 2 Identification of S100A8 binding sites to human TLR4/MD-2. […] TLR4/MD-2 recombinant proteins were immobilized to the ELISA plate. After blocking, a full length or deletion mutant of S100A8 was added to the plate. The more detailed methods are described in Materials and Methods. […] B A series of overlapping S100A8 synthetic peptides. The TLR4/MD-2 recombinant proteins were added to each well of peptide immobilized plates. The affinity to TLR4/MD-2 was determined. Data are shown as mean ± SD. C The competitive activity was determined using ELISA. Data are shown as mean ± SD. D The TLR4/MD-2 was mixed with S100A8 with/without the indicated peptides, and immunoprecipitated using an anti-TLR4 antibody. TLR4 or S100A8 was visualized. Similar results were obtained in three independent experiments. […] Total RNAs from SW480 cells with/without treatment of the peptide candidates were extracted and qPCR analysis was performed using relevant primer sets and SYBR green. Relative expression levels were compared. […] TEXT PRINTED IN THE PICTURE: (A) Full length: TLR4/MD-2 binding: + | (A) S100A8-ΔC: TLR4/MD-2 binding: − | (A) S100A8-N: TLR4/MD-2 binding: −
(§3) Fig. 4 Improvement of competitive inhibition activity by divalent peptide3A5. A The binding capacity was measured at the indicated concentration using an ELISA-based assay. Similar results were obtained in three independent experiments. B SW480 cells were pretreated with 2.5 µM of divalent peptide3A5, and then stimulated with human S100A8 recombinant protein. After 30 min, cell lysates were subjected to western blotting using the indicated antibody. The divalent peptide#3 or peptide3A5 reduced the expression of S100A8-mediated IL-8 (C) and VEGF (D) induction. Total RNAs from SW480 cells with/without treatment of the peptide candidates were extracted and qPCR analysis was performed using relevant primer sets and SYBR green. Relative expression levels were compared. Peptide #3 suppresses S100A8-mediated IL-8(E) and VEGF (F) secretion in SW480 cells.

Test [1] has as its system human TLR4/MD-2 complex. The test can be described thus: ELISA, TLR4/MD-2 binding to immobilized S100A8-derived peptides (overlapping peptides, alanine scan). The note with it: alanine scan on peptide #3, compared with parental peptide#3, peptide3A5 *P = 0.013. As for the experimental part: as §1, §2
Fig. 3 Identification of high affinity peptides to TLR4/MD-2 using alanine scanning based on the peptide #3 amino acid sequences. A Lists of peptides used for alanine scanning. […] Similar results were obtained in three independent experiments.

For test [2], the system named is SW480 cells. The test can be described thus: qPCR, S100A8-mediated IL-8 and VEGF mRNA induction in SW480 cells. Conditions: qPCR, normalized to β-actin. Format: cell-based, human. As for the experimental part: SW480 cells were treated with S100A8 in Dulbecco’s Modified Eagle Medium/HamF12 supplemented with 0.1% bovine serum albumin for cytokine induction. Total RNA was extracted using the RNeasy Mini Plus (Qiagen, Hilden, Germany). Complementary DNA was synthesized using the PrimeScript 1st Strand Synthesis kit (Takara Bio, Japan). Quantitative PCR (qPCR) analysis was performed using the PowerUp^TM SYBR^TM Green mixture (Thermo Fisher Scientific) and the StepOnePlus Real Time PCR System (Thermo Fisher Scientific). Gene expression levels were calculated from Ct values, and the relationship between the Ct value and the logarithm of the copy number of a target gene was confirmed to be on a linear line using the corresponding isolated DNA and its serial dilutions as a standard. Thus, the gene expression levels of IL-8 and VEGF were normalized against that of β-actin in each sample. The following primers were used; β-actin, 5′-[…]-3′ and 5′-[…]-3′; IL-8, 5′-[…]-3′ and 5′-[…]-3′; VEGF, 5′-[…]-3′ and 5′-[…]-3′.
as §2, §3

The subject of the next test is PKH26-labeled LLC cells. Description: Lung dissemination of PKH26-labeled LLC cells in TCM-sensitized mice. Format: in vivo, C57BL/6J mice. Conditions: 10 mg/kg i.p. 1 h before last TCM injection; lungs 16 h after cells; 5–6 mice per group; *P < 0.05 vs control.
Test [3] deals with SW480-transplanted xenograft. Description: Tumor growth in SW480-transplanted xenograft model. In kind it is in vivo, Balb nu/nu mice. The note with it: SW480 xenograft, various concentrations every 3 days, *P < 0.05 vs control.
For test [4], the system named is tumor cells and macrophages. The test can be described thus: Cytokine/chemokine induction in tumor cells and macrophages. Format: cell-based. The note with it: possible mechanism scheme, Fig. 7I.
The test system of test [5] is human TLR4/MD-2 complex. Description: ELISA, S100A8 protein or mutant binding to TLR4/MD-2. Conditions: recombinant S100A8 full length or mutant. As for the experimental part:
as §1
Fig. 2 Identification of S100A8 binding sites to human TLR4/MD-2. […] TLR4/MD-2 recombinant proteins were immobilized to the ELISA plate. After blocking, a full length or deletion mutant of S100A8 was added to the plate. The more detailed methods are described in Materials and Methods. […] B A series of overlapping S100A8 synthetic peptides. The TLR4/MD-2 recombinant proteins were added to each well of peptide immobilized plates. The affinity to TLR4/MD-2 was determined. Data are shown as mean ± SD. C The competitive activity was determined using ELISA. Data are shown as mean ± SD. D The TLR4/MD-2 was mixed with S100A8 with/without the indicated peptides, and immunoprecipitated using an anti-TLR4 antibody. TLR4 or S100A8 was visualized. […]

Test [6] deals with tetravalent ILVIK (human). Description: ELISA; tetravalent ILVIK immobilised; after blocking TLR4/MD-2 proteins added at various concentrations (Fig. 7F).
The test system of test [7] is SW480 cells. The test can be described thus: ELISA, IL-8 and VEGF secretion of SW480 cells. The note with it: SW480 cells; data not shown. In kind it is cell-based, human. As for the experimental part:
as §1

Another test relates to mouse TLR4/MD-2 complex. The note with it: ref [8]; cited from earlier work.

T1 sequence (O00206 24-631 limits assumed): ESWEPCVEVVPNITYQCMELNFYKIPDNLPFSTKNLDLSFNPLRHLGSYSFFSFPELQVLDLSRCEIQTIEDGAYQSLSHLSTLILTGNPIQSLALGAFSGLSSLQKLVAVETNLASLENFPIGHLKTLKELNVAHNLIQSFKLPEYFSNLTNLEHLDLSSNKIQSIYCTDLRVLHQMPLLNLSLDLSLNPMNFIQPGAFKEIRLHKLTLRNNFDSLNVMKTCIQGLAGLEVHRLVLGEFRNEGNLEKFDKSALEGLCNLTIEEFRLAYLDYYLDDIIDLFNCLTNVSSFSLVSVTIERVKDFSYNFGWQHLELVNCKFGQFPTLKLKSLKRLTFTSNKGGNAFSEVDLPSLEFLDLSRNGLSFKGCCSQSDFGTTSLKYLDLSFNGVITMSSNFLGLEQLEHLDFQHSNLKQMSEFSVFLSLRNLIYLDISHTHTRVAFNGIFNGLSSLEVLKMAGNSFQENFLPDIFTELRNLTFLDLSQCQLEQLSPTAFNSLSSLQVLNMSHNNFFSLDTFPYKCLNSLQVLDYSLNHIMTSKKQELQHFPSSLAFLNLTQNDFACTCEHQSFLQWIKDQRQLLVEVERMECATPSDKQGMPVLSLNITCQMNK
T1 sequence (Q9Y6Y9 17-160 partner limits assumed): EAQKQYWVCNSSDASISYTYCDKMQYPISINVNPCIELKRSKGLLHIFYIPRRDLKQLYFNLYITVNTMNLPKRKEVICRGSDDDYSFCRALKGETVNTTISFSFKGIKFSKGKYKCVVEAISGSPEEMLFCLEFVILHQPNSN

Consider “FQEFA [FQEFA dimer, dimer of FQEFA, peptide3A5 with the last five amino acids deleted]”, for which the “binding to TLR4/MD-2, peptide3A5-derived peptides” value on TLR4/MD-2 complex was “diminished the capacity of binding to TLR4/MD-2”.
Consider FQEFAILVIK [peptide3A5], for which the “competitive inhibition, potency compared with parent” value in the test with S100A8-TLR4/MD-2 complex is listed as “competed with the S100A8-TLR4/MD-2 complex at a lower dose than peptide #3”; with S100A8-TLR4/MD-2 complex (listed as Peptide3A5), “more potent for competitive inhibition on S100A8-TLR4/MD-2 complex than peptide #3”. Further, the “affinity for TLR4/MD-2, alanine scanning” value in the test with human TLR4/MD-2 complex [1] was “increased the affinity for TLR4/MD-2”; with human TLR4/MD-2 complex [1] (listed as Peptide3A5), “increased binding affinity to TLR4/MD-2”. In the test on SW480 cells [2], the “S100A8-mediated VEGF induction (mRNA)” value is given as “reduced”. In addition, the “S100A8-mediated IL-8 induction (mRNA)” value with SW480 cells [2] (*P < 0.05 vs S100A8) was “reduced”. The “pulmonary recruitment of PKH26-labeled LLC cells / lung metastasis” value in the test with PKH26-labeled LLC cells is given as “suppressed the pulmonary recruitment of tumor cells”.
Turning to “ILVIK [Divalent ILVIK, divalent peptide with two ILVIK motifs on a monolysine core, N-terminus acetylated]”, the “tumor growth, multivalent ILVIK” value in [3] is “inhibits tumor growth”; in test [3] (listed as divalent ILVIK) it was “inhibited tumor growth in subcutaneously transplanted SW480 cells in a dose-dependent manner”. Besides, the “competitive inhibitory activity against TLR4/MD-2, peptide3A5-derived peptides” value with S100A8-TLR4/MD-2 complex (listed as deletion mutant of the FQEFA amino acid sequences) is listed as “sustained the competitive inhibitory activity”; in the test with S100A8-TLR4/MD-2 complex (listed as divalent ILVIK) it was “candidate inhibitor; also recorded: competitively inhibited S100A8 binding to TLR4/MD-2”. Also, the induction of cytokines/chemokines entry in test [4] was “suppress the induction of cytokines/chemokines in both tumor cells and macrophages”.
Take “ILVIK [monomeric ILVIK, monovalent ILVIK peptide, N-terminus acetylated]”: the “competitive inhibitory activity against TLR4/MD-2, peptide3A5-derived peptides” value with S100A8-TLR4/MD-2 complex was “did not perform these activities; also recorded: failed to obtain the competitive inhibitory activities against the TLR4/MD-2 complex”. In addition, the “binding to TLR4/MD-2, peptide3A5-derived peptides” value on TLR4/MD-2 complex is listed as “did not perform these activities”.
As to “Lys77: peptide #3 with substitution of Lys77 with alanine (FQEFLILVIA)”, in the test on human TLR4/MD-2 complex [1], the “affinity for TLR4/MD-2, alanine scanning” value is given as “diminished the S100A8 activity of TLR4/MD-2 binding”.
Consider “human S100A8: full length human S100A8 recombinant protein”, for which the “binding to human TLR4/MD-2 (in words)” value in the test on human TLR4/MD-2 complex [5] is on record as “binds to human TLR4/MD-2 complex”.
Take “human TLR4/MD-2 complex (from UniProt O00206 24-839; Q9Y6Y9 19-160)”: the dissociation constant (Kd) in test [6] lay within 4.58 to 8.78 nM.

B1: S100A8-Lys77Ala: S100A8-Lys77Ala recombinant protein (protein)
chain: MLTELEKALNSIIDVYHKYSLIKGNFHAVYRDDLKKLLETECPQYIRKKGADVWFKELDINTDGAVNFQEFLILVIAMGVAAHKKSHEESHKE
Turning to B1, the “IL-8 production, S100A8 mutant” value in the test with SW480 cells [7] is recorded as “had no effect on IL-8 production”. Moreover, the “binding to human TLR4/MD-2 (in words)” value in the test on human TLR4/MD-2 complex [5] was “hardly bound to the TLR4/MD-2 complex”; in the test with human TLR4/MD-2 complex [5] (listed as S100A8Lys77Ala) it was “decreased affinity to TLR4/MD-2”.

B2: mouse S100A8: mouse S100A8 protein (protein, UniProt P27005 2-89, looked up)
Protein S100-A8: PSELEKALSNLIDVYHNYSNIQGNHHALYKNDFKKMVTTECPQFVQNINIENLFRELDINSDNAINFEEFLAMVIKVGVASHKDSHKE
For the molecule B2, the “binding to mouse TLR4/MD-2” value in the test with mouse TLR4/MD-2 complex is “binds to the mouse TLR4/MD-2 complex via the carboxyl-terminal region”.
